Experimental data as given in PubChem BioAssay (NCI).
Several values for one entry are separate records, joined by “and”; a condition that tells them apart may be missing. Identical values can stand only once.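 All cell lines were grown in 96-well plates and treated with compound for 48 hours. At the GI50, growth is halved. At the TGI there is no net growth.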

How the values were obtained:
Test in all cases: DTP human tumour cell line panel, 48 h
A549 NSCLC = system: A549 NSCLC
HCC-2998 colon = system: HCC-2998 colon
HT29 colon = system: HT29 colon
NCI-H522 lung = system: NCI-H522 lung
SK-MEL-5 melanoma = system: SK-MEL-5 melanoma
SNB-19 CNS = system: SNB-19 CNS
NCI-H226 lung = system: NCI-H226 lung
RXF 393 renal = system: RXF 393 renal
BT-549 breast = system: BT-549 breast
T-47D breast = system: T-47D breast

SMILES	TGI (A549 NSCLC) [µM]	TGI (HCC-2998 colon) [µM]	TGI (HT29 colon) [µM]	TGI (NCI-H522 lung)	TGI (SK-MEL-5 melanoma)	TGI (SNB-19 CNS)	TGI (NCI-H226 lung)	TGI (RXF 393 renal) [µM]	TGI (BT-549 breast) [µM]	TGI (T-47D breast) [µM]	GI50 (A549 NSCLC) [µM]	GI50 (HCC-2998 colon) [µM]	GI50 (HT29 colon) [µM]	GI50 (NCI-H226 lung) [µM]	GI50 (NCI-H522 lung)	GI50 (RXF 393 renal) [µM]	GI50 (SK-MEL-5 melanoma) [µM]	GI50 (SNB-19 CNS) [µM]	GI50 (T-47D breast) [µM]	GI50 (BT-549 breast) [µM]
CC(=O)CCC1(c2ccccc2)OC(=O)C(C#N)=C1c1ccccc1 (stereo not drawn)	> 100	> 100	> 100	4.53 µM	> 100 µM	> 100 µM	–	–	–	–	–	–	–	–	–	–	–	–	–	–
COC(=O)CC1(O)C(=O)OCc2c1cc1n(c2=O)Cc2c-1nc1ccccc1c2OC (stereo not drawn)	> 100	> 100	> 100	16.3 µM	2.74 µM	66.2 µM	0.688 µM	8.42	–	–	–	–	–	–	–	–	–	–	–	–
CC1NOC(=O)C1N=Nc1cccc(Cl)c1 (stereo not drawn)	> 100	> 100	77	62.8 µM	> 100 µM	> 100 µM	> 100 µM	64.1	–	–	–	–	–	–	–	–	–	–	–	–
Nc1nc(Cl)c2ncn(CCCC(c3ccccc3)P(=O)(O)O)c2n1 (stereo not drawn)	> 100	> 100	> 100	> 100 µM	> 100 µM	> 100 µM	–	–	–	–	–	–	–	–	–	–	–	–	–	–
O=[N+]([O-])c1cccc(/C=N/Nc2ccc3ccccc3n2)c1O	> 70.8	–	20.5	7.52 µM	3.45 µM	47.4 µM	9.98 µM	17.4	37.9	4.89	–	–	–	–	–	–	–	–	–	–
Fc1ccccc1CN1COc2c(cc(Cl)c3cccnc23)C1	10.9	–	20.4	14.1 µM	3.75 µM	9.23 µM	2.97 µM	63.6	–	18.4	–	–	–	–	–	–	–	–	–	–
O=P(CN1CCOCC1)(c1ccccc1)c1ccccc1	> 100	–	> 100	> 100 µM	> 100 µM	> 100 µM	–	> 100	–	–	–	–	–	–	–	–	–	–	–	–
Cc1c(Cl)ccc2c1NC(=O)C2(O)CC(=O)c1ccc(Cl)cc1 (stereo not drawn)	> 100	> 56.2	> 66.1	> 100 µM	> 100 µM	> 100 µM	> 100 µM	> 88.5	–	–	–	–	–	–	–	–	–	–	–	–
CCCCCCCCCCCCCCCCCc1nc(Cl)nc(Cl)c1Cl	> 100	> 100	> 100	> 100 µM	50.7 µM	> 100 µM	34.6 µM	> 100	–	> 100	–	–	–	–	–	–	–	–	–	–
O=C(Nc1ccn(C2CC(O)C(COC(c3ccccc3)(c3ccccc3)c3ccccc3)O2)c(=O)n1)c1ccccc1 (stereo not drawn)	16.7	21.6	3.22	13.4 µM	4.67 µM	14.2 µM	35.4 µM	6.99	–	16.7	–	–	–	–	–	–	–	–	–	–
CC1[C@@]2(CCC(C)(C)O2)O[C@@H]2C=C3C4CCC5Cc6nc7c(nc6C[C@@]5(C)C4C[C@H](O)[C@@]3(C)[C@]12O)CC1CCC2C3=C[C@H]4O[C@@]5(O[C@@](C)(CO)C[C@@H]5O)C(C)[C@@]4(O)[C@]3(C)[C@@H](O)CC2[C@]1(C)C7 (stereo partly drawn)	0.711	0.86	–	0.418 µM and 0.0804 µM	0.37 µM and 0.0841 µM	0.808 µM and 0.82 µM	0.411 µM and 0.806 µM	–	–	–	0.0028	0.401	0.00179	0.0107	0.0132 µM	< 0.000365	0.0165	0.041	–	–
O=C(N/C(=C\c1ccc([N+](=O)[O-])cc1)c1nc2ccccc2s1)c1ccccc1	> 100	> 100	> 100	–	63.5 µM	> 100 µM	–	78.4	–	–	–	–	–	–	–	–	–	–	–	–
Cc1ccc(NCCNCC(C)(C)O)c2c(=O)c3ccc(Cl)cc3sc12	3.09	2.91	3.1	3.59 µM	2.95 µM	3.27 µM	–	2.61	–	–	1.64	1.38	1.61	–	1.82 µM	1.26	1.58	1.67	–	–
CN1C2C=CC(=O)C1C1C(=O)N(c3ccccc3)C(=O)C12 (stereo not drawn)	29.1	29.3	23.4	79.9 µM	24.3 µM	29.5 µM	57.3 µM	–	–	22.6	11.1	13.3	3.92	17.6	14.3 µM	–	11.8	13.3	5.65	–
COc1ccc(/C=C/C(=O)c2c(-c3ccccc3)nn(C)c(=O)c2N2CC2C)cc1 (stereo not drawn)	> 100	66.6	> 100	67.1 µM	> 100 µM	> 100 µM	> 100 µM	93.6	–	–	–	–	–	–	–	–	–	–	–	–
O=C(/C=C/c1ccc(O)c(O)c1)N1CCN(c2ccc(Cl)cc2)CC1	60.2	23.8	32	12.6 µM	10.2 µM	98.1 µM	26.4 µM	–	45.6	77	5.7	10.5	13.1	4.63	1.83 µM	–	2.65	5.17	5.57	5.21
N#C/C(=C\c1ccc(O)cc1)C(N)=O	> 100	> 100	> 100	> 100 µM	> 100 µM	> 100 µM	> 100 µM	> 100	–	–	–	–	–	–	97.5 µM and 44 µM	–	–	–	–	–
[O]=[Sn]([CH]1CCCCC1)[CH]1CCCCC1	2.89	0.693	0.866	0.217 µM	1.14 µM	0.95 µM	0.657 µM	0.241	0.588	–	1.4	0.245	0.298	0.229	0.0711 µM	0.0962	0.259	0.271	–	0.229
COC(=O)C1=NC(=S)NC(c2ccccc2)C1c1nc2ccccc2o1 (stereo not drawn)	> 50	> 50	> 50	> 50 µM	–	> 50 µM	> 50 µM	> 50	–	–	–	–	–	–	–	–	–	–	–	–
Cc1cc(Cl)ccc1N=C1NC(=O)C(CC(=O)Nc2cccc(Cl)c2)S1 (stereo not drawn)	> 100	> 100	> 100	> 100 µM	> 100 µM	> 100 µM	> 100 µM	72.6	–	–	–	–	–	–	–	–	–	–	–	–
CCCC1C[C@H]2CCCCN2[C@H]2CCCN12 (stereo partly drawn)	> 100	> 100	> 100	> 100 µM	> 100 µM	> 100 µM	> 100 µM	> 90.1	–	–	–	–	–	–	–	–	–	–	–	–
